Measured values: patent publication EP4534542A1, “THIOSUGAR BASED ISOTHIOCYANATES AND USES THEREOF” (Universidad de Sevilla, priority 2023, dated 2025)
Where two headings read alike, the source gives them in different places.

How the values were obtained:
[1] = test system: U937 (Acute myeloid leukaemia); assay: Antileukemic activity, cell viability (CCK-8 Cell Counting Kit); format: cell-based; details: Homo sapiens, U-937; 18 h incubation, compounds 0 - 100 µM; read-out: IC50 Cancer cells U937 (Acute myeloid leukaemia)
Protocol: (§1) HaCaT cells (human keratinocytes, reference control), A549 (human lung adenocarcinoma cells), MeWo (human melanoma cells) and T24 (human bladder cancer cells) were purchased from Cell Lines Service (CLS). Cells were grown in Dulbecco's Modified Eagle's Medium (DMEM) supplemented with 100 U/mL penicillin, 100 µg/mL streptomycin and 10% fetal bovine serum. HL60 cell line (acute myeloid leukaemia, AML) was obtained from ATCC. It was cultured in IMDM medium supplemented with 100 U/mL penicillin, 100 µg/mL streptomycin and 10% fetal bovine serum. U937 (AML) and Jurkat cells (ALL) were obtained from DMSZ, Braunschweig, Germany, and ATCC, respectively. They were cultivated in RPMI medium, supplemented with 100 U/mL penicillin, 100 µg/mL streptomycin and 10% fetal bovine serum. OPM-2 cell line (MM), was obtained from DMSZ, Braunschweig, Germany and cultured in RPMI medium supplemented with 100 U/mL penicillin, 100 µg/mL streptomycin, 10% fetal bovine serum and 1X GlutaMAXTM. All cell lines were cultured at 37 ° C with 5% CO2 in a humidified incubator. Cell culture reagents were purchased from Biowest.
(§2) For the leukemic cell lines, the CCK-8 Cell Counting Kit (Dojindo Molecular Technologies) was used according to manufacturers instructions. Briefly, 50.000 cells were seeded in each well of a 96 well plate, and they were treated with increased amounts (0 - 100 µM) of each of the compounds, and incubated for 18 h at 37 °C, 5% CO2. After this period, 7 µl of the CCK-8 reagent were added to each well, and cells were further incubated for 2 h at 37 °C, 5% CO2. OD at 450 nm was obtained using a MultiskanTM GO microplate reader (Thermo Fisher Scientific, Waltham, MA, EE.UU). Cell viability in each condition was normalized to the measurement obtained in the non treated samples (100%), and were represented as average ± standard error of the mean (SEM).

[2] = test system: OPM-2 (Multiple myeloma); assay: as above; format: cell-based; details: Homo sapiens, 18 h incubation, compounds 0 - 100 µM, read-out: IC50 Cancer cells OPM-2 (Multiple myeloma)
Protocol: as §1, §2

[3] = test system: Jurkat (Acute lymphoblastic leukaemia); assay: as above; format: cell-based; details: Homo sapiens, 18 h incubation, compounds 0 - 100 µM, read-out: IC50 Cancer cells Jurkat (Acute lymphoblastic leukaemia)
Protocol: as §1, §2

[4] = test system: HL60 (Acute myeloid leukaemia); assay: as above; format: cell-based; details: Homo sapiens, HL-60; 18 h incubation, compounds 0 - 100 µM; read-out: IC50 Cancer cells HL60 (Acute myeloid leukaemia)
Protocol: as §1, §2

[5] = test system: MeWo (human melanoma cells); assay: Cell viability assay (resazurin), cytotoxic activity against solid tumours; format: cell-based; details: for IC50: read-out: IC50 MeWo (Melanoma; BRAF WT); for S.I. MeWo (Selectivity Index): IC50 HaCaT divided by IC50 MeWo, mean of independent experiments
Protocol: (§3) Cells were grown in Dulbecco's Modified Eagle's Medium (DMEM) supplemented with 100 U/mL penicillin, 100 µg/mL streptomycin and 10% fetal bovine serum. HL60 cell line (acute myeloid leukaemia, AML) was obtained from ATCC. It was cultured in IMDM medium supplemented with 100 U/mL penicillin, 100 µg/mL streptomycin and 10% fetal bovine serum. U937 (AML) and Jurkat cells (ALL) were obtained from DMSZ, Braunschweig, Germany, and ATCC, respectively. They were cultivated in RPMI medium, supplemented with 100 U/mL penicillin, 100 µg/mL streptomycin and 10% fetal bovine serum. […] All cell lines were cultured at 37 ° C with 5% CO2 in a humidified incubator. Cell culture reagents were purchased from Biowest. Exponentially growing cells (3000-6000 cells per well) were seeded in 96-well plates. After 24 hours, cells were treated with the drugs for 72 hours. The cell viability was then estimated with the resazurin assay, a colorimetric technique based on the capability of viable cells to reduce the blue reagent resazurin to the pink-soluble product resorufin. The amount of resorufin produced is proportional to the number of viable cells. Briefly, cells were washed once with phosphate buffered saline (PBS) and 150 µL resazurin (20 µg/mL in medium) was added to each well. […] Cell viability was calculated as a percentage compared to non-treated cells. The results were expressed as the means ± standard error of the mean (SEM). All data are from at least three independent experiments. The selectivity index (S.I.) values were calculated over each cancer cell line as the mean of the IC50 value in the non-malignant cell line (HaCaT) by the IC50 in the respective cancer cell line obtained in each independent experiment.

[6] = test system: A549 (human lung adenocarcinoma cells); assay: as above; format: cell-based; details: for IC50: read-out: IC50 A549 (Lung adenocarcino ma); for S.I. A549 (Selectivity Index): IC50 HaCaT divided by IC50 A549, mean of independent experiments
Protocol: as §3

[7] = test system: T24 (human bladder cancer cells); assay: as above; format: cell-based; details: for IC50: read-out: IC50 T24 (Bladder cancer); for S.I. T24 (Selectivity Index): IC50 HaCaT divided by IC50 T24, mean of independent experiments
Protocol: as §3

[8] = test system: HaCaT cells; assay: Cell viability assay (resazurin), cytotoxicity in non-malignant cells; format: cell-based, human; details: read-out: IC50 HaCaT (Non-malignant keratinocyte)
Protocol: Cells were grown in Dulbecco's Modified Eagle's Medium (DMEM) supplemented with 100 U/mL penicillin, 100 µg/mL streptomycin and 10% fetal bovine serum. HL60 cell line (acute myeloid leukaemia, AML) was obtained from ATCC. It was cultured in IMDM medium supplemented with 100 U/mL penicillin, 100 µg/mL streptomycin and 10% fetal bovine serum. U937 (AML) and Jurkat cells (ALL) were obtained from DMSZ, Braunschweig, Germany, and ATCC, respectively. They were cultivated in RPMI medium, supplemented with 100 U/mL penicillin, 100 µg/mL streptomycin and 10% fetal bovine serum. […] All cell lines were cultured at 37 ° C with 5% CO2 in a humidified incubator. Cell culture reagents were purchased from Biowest. Exponentially growing cells (3000-6000 cells per well) were seeded in 96-well plates. After 24 hours, cells were treated with the drugs for 72 hours. The cell viability was then estimated with the resazurin assay, a colorimetric technique based on the capability of viable cells to reduce the blue reagent resazurin to the pink-soluble product resorufin. The amount of resorufin produced is proportional to the number of viable cells. Briefly, cells were washed once with phosphate buffered saline (PBS) and 150 µL resazurin (20 µg/mL in medium) was added to each well. The plates were incubated for 3 hours at 37 °C, 5% CO2, and finally optical densities were measured at 540 and 620 nm with a multiwell plate spectrophotometer reader (Multiskan EX Labsystems). Cell viability was calculated as a percentage compared to non-treated cells. The results were expressed as the means ± standard error of the mean (SEM). All data are from at least three independent experiments.

[9] = Homo sapiens, MeWo, 72 h treatment, resazurin assay, mean ± SEM
[10] = Homo sapiens, A549, 72 h treatment, resazurin assay, mean ± SEM
[11] = Homo sapiens, 72 h treatment, resazurin assay, mean ± SEM
[12] = Homo sapiens, HaCaT, 72 h treatment, resazurin assay, mean ± SEM
[13] = 72 h treatment, resazurin assay, mean ± SEM

Structure (SMILES) | IC50 [1] [µM] | IC50 [2] [µM] | IC50 [3] [µM] | IC50 [4] [µM] | IC50 ([5]; Homo sapiens, MeWo, 72 h) [µM] | S.I. MeWo (Selectivity Index) [5] | IC50 ([6]; Homo sapiens, A549, 72 h) [µM] | S.I. A549 (Selectivity Index) [6] | IC50 ([7]; Homo sapiens, 72 h) [µM] | S.I. T24 (Selectivity Index) [7] | IC50 ([8]; Homo sapiens, HaCaT, 72 h) [µM] | IC50 [5, 9] [µM] | IC50 [6, 10] [µM] | IC50 [7, 11] [µM] | IC50 [8, 12] [µM] | IC50 [5, 13] [µM] | IC50 [6, 13] [µM] | IC50 [7, 13] [µM] | IC50 [8, 13] [µM]
C[S+]([O-])CCCN=C=S (racemic) [rac-5, 1-isothiocyanato-3-(methylsulfinyl)propane, reference compound] | 8.5 | 19.4 | 13.7 | 11 | 32.8 ± 5.8 | 1.0±0.1 | 20.7 ± 5.7 | 1.8±0.3 | 12.2 ± 2.9 | 2.9±0.3 | 33 ± 5.8 | – | – | – | – | – | – | – | –
CC[S@@+]([O-])[C@H]1O[C@H](COC(C)=O)[C@@H](OC(C)=O)[C@H](N=C=S)[C@H]1OC(C)=O [(RS)-17α, Ethyl 2,4,6-tri-O-acetyl-3-isothiocyanato-1,3-dideoxy-1[(R)-sulfinyl]-α-D-glucopyranse] | 41.2 | – | 38.1 | 50.3 | – | > 1.1 | – | > 1.1 | – | > 1.6 | – | 113 ± 39.2 | 108 ± 25.7 | 65.6 ± 13.3 | > 100 | – | – | – | –
CC(=O)OC[C@H]1O[C@H]([S@+]([O-])c2ccccc2)[C@H](OC(C)=O)[C@@H](N=C=S)[C@@H]1OC(C)=O [(RS)-18α, Phenyl 2,4,6-tri-O-acetyl-3-isothiocyanato-1,3-dideoxy-1[(R)-sulfinyl]-α-D-glucopyranose] | ~47.3 | 19.6 | 46.3 | 7.4 | – | 1.0±0.4 | – | 1.1±0.4 | – | 1.3±0.5 | – | 55.3 ± 7.6 | 55.7 ± 8.4 | 48.6 ± 8.6 | 51 ± 17.6 | – | – | – | –
CC(=O)OC[C@H]1O[C@@H]([S@+]([O-])c2ccccc2)[C@H](OC(C)=O)[C@@H](N=C=S)[C@@H]1OC(C)=O [(RS)-18β, Phenyl 2,4,6-tri-O-acetyl-3-isotiocianato-1,3-dideoxy-1[(R)-sulfinyl]-β-D-glucopyranose] | – | – | – | – | – | 1.8±0.2 | – | 1.7±0.2 | – | 2.2±0.4 | – | 21.9 ± 2.9 | 21.9 ± 2.5 | 17.2 ± 1.2 | 39.4 ± 8.7 | – | – | – | –
N.N.[Cl][Pt][Cl] [Cisplatin, reference compound] | – | – | – | – | – | – | – | – | – | – | – | – | – | – | – | 2.2 ± 1.1 | 13.5 ± 2.7 | 1.6 ± 0.5 | 2.1 ± 0.7
CSCCCN=C=S [Compound 4, (3-isothiocyanatopropyl)(methyl)sulfane, reference compound] | – | 12 | 8.9 | 9 | 31.6 ± 5.7 | – | 31.1 ± 7.6 | – | 14.4 ± 1.1 | – | 43.9 ± 3.2 | – | – | – | – | – | – | – | –
CC(=O)OC[C@H]1O[C@@H](Sc2ccccc2)[C@H](OC(C)=O)[C@@H](N=C=S)[C@@H]1OC(C)=O [Compound 15β, Phenyl 2,4,6-tri-O-acetyl-3-isothiocyanato-1,3-dideoxy-1-thio-β-D-glucopyranoside] | – | – | – | – | – | 1.1±0.0 | – | 1.3±0.1 | – | 1.2±0.1 | – | 30.2 ± 9.5 | 32.2 ± 10.2 | 27.1 ± 8.7 | 32.2 ± 10.2 | – | – | – | –
CC(=O)OC[C@H]1O[C@H](S(=O)(=O)c2ccccc2)[C@H](OC(C)=O)[C@@H](N=C=S)[C@@H]1OC(C)=O [Compound 21α, Phenyl 2,4,6-tri-O-acetyl-3-isothiocyanato-1,3-dideoxy-1-sulfonyl-α-D-glucopyranose] | – | – | – | – | 22.9 ± 5.9 | 2.0±0.3 | 22.9 ± 3.7 | 1.9±0.2 | 18.5 ± 0.6 | 2.4±0.4 | 45 ± 8.9 | – | – | – | – | – | – | – | –
C[S+]([O-])CCCCN=C=S (centres unmarked) [SFN, sulforaphane, reference compound] | – | – | – | – | – | 1.7±0.4 | – | 1.7 ± 0.2 | – | 2.6±0.3 | – | 12.9 ± 4.2 | 10.6 ± 2.1 | 6.3 ± 0.2 | 16.6 ± 2.4 | – | – | – | –
